How the values were obtained:
[1] = test system: PD-L1; assay: Flow cytometry of PD-L1 on DU145 cells; format: cell-based, human; conditions: MZ-1 50 nM, JQ1 400 nM
Procedure: Single-cell suspensions were washed after collection and stained in ice-cold Ca^+2/Mg^+2-free PBS with a viability dye (Zombie NIR, BioLegend) for 20 min at 4° C. in the dark. Cell suspensions were then washed twice with ice-cold flow cytometry buffer (Ca^+2/Mg^+2-free PBS, supplemented with 2% FBS and 2 mM EDTA). Cell suspensions were then stained for PD-L1 (PE-conjugated, BD Biosciences). All cell suspensions were washed twice in ice cold flow cytometry buffer before analysis. Unstained cells and single-stained controls were used to calculate flow cytometry compensation. Data acquisition (typically 1 million events) was performed on a BD LSRII instrument at the Boston University Flow Cytometry Core Facility. Data analysis was carried out using FlowJo Software (version 10.6.1, Tree Star).

[2] = test system: DU145 cells; assay: RT-PCR of SNAI1 and CD274 in DU145 cells after T2D exosomes plus JQ1 or MZ-1; format: cell-based, human; conditions: MZ-1 50 nM, JQ1 400 nM
Procedure: (FIG. 19A) Expression of SNAI1 and CD274 genes in DU145 cells measured by RT-PCR of cellular RNA after exosome treatment. T2D exosomes (109; T2D Exo) were compared to media only control exosomes (Control), or T2D Exo+JQ1 or MZ1. (JQ1 is a pan-BET inhibitor (400 nM) and MZ-1 is a BRD4-selective degrader (50 nM)). (FIG. 19B) Expression of PD-L1 was measured by flow cytometry after treatments. One million events were analyzed by Flow-Jo and presented as overlaid histograms (control, red trace; experimental, black trace). (FIG. 19C) Flow cytometry data of FIG. 19B were quantified with PD-L1 as percent of parent population. The experiment was conducted in triplicate with differences between means represented as bar graphs. Data were analyzed by two-way ANOVA with statistical significance presented as: ****, P<0.0001 (TGFB, TGF-β positive control at 5 ng/mL for SNAI1 induction; IFNgamma, interferon-γ positive control at 5 ng/mL for CD274 induction).
Procedures were as previously described. Briefly, total RNA was extracted from tumor cells using an RNAeasy Kit (Qiagen). Reverse transcription reactions were performed with 1 μg of total RNA with the QuantiTect Reverse Transcription kit (Qiagen). Gene expression was measured using TaqMan™ master mix (Thermofisher, 4369510) and human gene probes as follows: SNAI (Hs00195591_m1), SNA2 (Hs00950344_m1), CDH1 (Hs01023895_m1), ACTB (Hs00357333_g1), CD274 (encodes PD-L1, Hs01125301_m1), CD155 (encodes PVR or TIGIT ligand, Hs00197846_m1), VIM (Hs00958111_m1), TGFB1 (Hs00998133_m1), and AHNAK (Hs01102463_m1).

[3] = test system: BRD2, BRD3 and BRD4; conditions: DU145 cells, cited from earlier work
[4] = test system: 4T1 cells; assay: Transwell migration assay with 4T1 cells; format: cell-based, murine; conditions: 50 nM MZ-1
Procedure: FIGS. 9A-9D depict EMT induction in murine 4T1 cells treated with EVs from IS vs IR murine adipocytes. Murine 3T3-L1 adipocytes were differentiated from pre-adipocyte fibroblasts as published (24), treated with 250 pM murine TNFα overnight, as specified to induce insulin resistance (9), then adipocyte conditioned media was used as the source of EVs. (FIG. 9A) 4T1 cells were treated for 3 days with EVs from IS or IR adipocytes, vs. media control EVs, then cells were fixed for immunohistochemistry. Vimentin and E-cadherin, as mesenchymal or epithelial markers respectively, were visualized by fluorophore-conjugated primary anti-mouse antibodies, with phalloidin stain for cytoskeletal structure and DAPI counterstain for DNA. Bar, 10 μm. (FIG. 9B) RT-PCR validation of two selected EMT genes, induced by EVs. (FIG. 9C) Transwell migration assay with 4T1 cells exposed to IS vs IR EVs, or IR treated with 50 nM MZ-1 (25) to inhibit BRD4 and block migration (18,24). (FIG. 9D) Quantitation of B. (n=3; ***, P<0.005).

[5] = test system: MCF-7 cells; assay: EMT/CSC gene expression (RT-PCR, PCR array, IPA) in MCF-7 cells treated with adipocyte exosomes; format: cell-based, human; conditions: MCF7 cells; compared to control EVs
Procedure: RNA was isolated from cells using RNeasy Plus Mini Kit (74136, Qiagen). From each sample, 1 μg of RNA was used to prepare 20 μL cDNA using QuantiTect Reverse Transcription Kit (Qiagen, 205313). Human RT2 Profiler™ PCR Array, including Epithelial to Mesenchymal Transition (EMT) (PAHS-090Z) and Cancer Stem Cell (PAHS-176ZC) arrays, were purchased from Qiagen. Each cDNA sample (102 μL comprised of 1 μg RNA) was mixed with 1,350 μL RT2 SYBR Green ROX qPCR Mastermix (Qiagen, 330522) and 1,248 μL RNAse-free water. A total volume of 2,700 μL was mixed by vortexing and transferred to a reservoir. Then, an 8 channel pipettor was used to take aliquots of reaction mix from the reservoir, to distribute 25 μL into each well of the array. PCR reactions were performed and results were analyzed using a 7500 Fast Real-Time PCR instrument.
All Ct values of the genes were normalized to the respective ACTB gene (delta Ct). […] For the control groups, delta.delta Ct was calculated using this formula: ΔΔCt=ΔCt (C1 or C2 or C3)—ΔCt (Control average). Then, fold-change was calculated using 2∧−ΔΔCt, (2 to the power of negative ΔΔCt). Next, the Z score was calculated based on this formula: Z score=(x-mean)/SD, where X is the fold-change. […]
To predict disease and function, and downstream pathways, data were analyzed through the use of Ingenuity Pathway Analysis, IPA (QIAGEN Inc.). […]

Compound | PD-L1 surface protein induced by T2D exosome treatment [1] | expression of SNAI1 induced by T2D plasma exosomes [2] | transcription of CD274 induced by T2D plasma exosomes [2] | elimination of BET proteins, low concentration ([3]; 50 nM) | elimination of BET proteins, high doses ([3]; 400 nM) | 4T1 migration provoked by exosomes from IR adipocytes [4] | transcription of ZEB1 and SNAI2 readout genes [5]
Cc1sc2c(c1C)C(c1ccc(Cl)cc1)=N[C@@H](CC(=O)OC(C)(C)C)c1nnc(C)n1-2 [JQ1] | inhibited | not able to reduce expression below the BRD4-selective level | inhibit transcription to below baseline | – | – | – | –
Cc1ncsc1-c1ccc(CNC(=O)[C@@H]2C[C@@H](O)CN2C(=O)[C@@H](NC(=O)COCCOCCOCCNC(=O)C[C@@H]2N=C(c3ccc(Cl)cc3)c3c(sc(C)c3C)-n3c(C)nnc32)C(C)(C)C)cc1 [MZ-1] | inhibited | inhibited expression | same inhibitory effect | selective to eliminate BRD4 protein while preserving BRD2 and BRD3 | eliminate all three somatic BET proteins | effectively ablated | –
TGF-β | – | – | – | – | – | – | Induction
